From ChEMBL document CHEMBL1139297, “Synthesis and stereochemical effects of pyrrolidinyl-acetylenic thieno[3,2-d]pyrimidines as EGFR and ErbB-2 inhibitors” (Bioorg Med Chem Lett, 2009)

Key:
BT-474 = assay: Antiproliferative activity against human BT474 cells overexpressing ERBb2 after 3 days by methylene blue staining; format: functional, cell-based; conditions: BT-474, 72 h
[1] = molecular target: T1, Receptor tyrosine-protein kinase erbB-2 (Homo sapiens, UniProt P04626); assay: Inhibition of ERBb2 by scintillation proximity assay
HN5 = assay: Antiproliferative activity against human HN5 cells overexpressing EGFR after 3 days by methylene blue staining; conditions: HN5, 72 h
[2] = molecular target: T2, Epidermal growth factor receptor (Homo sapiens, UniProt P00533); assay: Inhibition of EGFR by scintillation proximity assay
HFF = assay: Antiproliferative activity against human HFF cells after 3 days by methylene blue staining; conditions: 72 h
[3] = molecular target: T2, Epidermal growth factor receptor; assay: Inhibition of EGFR by HTRF assay
[4] = molecular target: T1, Receptor tyrosine-protein kinase erbB-2; assay: Inhibition of ERBb2 by HTRF assay

T2 sequence (P00533 whole entry): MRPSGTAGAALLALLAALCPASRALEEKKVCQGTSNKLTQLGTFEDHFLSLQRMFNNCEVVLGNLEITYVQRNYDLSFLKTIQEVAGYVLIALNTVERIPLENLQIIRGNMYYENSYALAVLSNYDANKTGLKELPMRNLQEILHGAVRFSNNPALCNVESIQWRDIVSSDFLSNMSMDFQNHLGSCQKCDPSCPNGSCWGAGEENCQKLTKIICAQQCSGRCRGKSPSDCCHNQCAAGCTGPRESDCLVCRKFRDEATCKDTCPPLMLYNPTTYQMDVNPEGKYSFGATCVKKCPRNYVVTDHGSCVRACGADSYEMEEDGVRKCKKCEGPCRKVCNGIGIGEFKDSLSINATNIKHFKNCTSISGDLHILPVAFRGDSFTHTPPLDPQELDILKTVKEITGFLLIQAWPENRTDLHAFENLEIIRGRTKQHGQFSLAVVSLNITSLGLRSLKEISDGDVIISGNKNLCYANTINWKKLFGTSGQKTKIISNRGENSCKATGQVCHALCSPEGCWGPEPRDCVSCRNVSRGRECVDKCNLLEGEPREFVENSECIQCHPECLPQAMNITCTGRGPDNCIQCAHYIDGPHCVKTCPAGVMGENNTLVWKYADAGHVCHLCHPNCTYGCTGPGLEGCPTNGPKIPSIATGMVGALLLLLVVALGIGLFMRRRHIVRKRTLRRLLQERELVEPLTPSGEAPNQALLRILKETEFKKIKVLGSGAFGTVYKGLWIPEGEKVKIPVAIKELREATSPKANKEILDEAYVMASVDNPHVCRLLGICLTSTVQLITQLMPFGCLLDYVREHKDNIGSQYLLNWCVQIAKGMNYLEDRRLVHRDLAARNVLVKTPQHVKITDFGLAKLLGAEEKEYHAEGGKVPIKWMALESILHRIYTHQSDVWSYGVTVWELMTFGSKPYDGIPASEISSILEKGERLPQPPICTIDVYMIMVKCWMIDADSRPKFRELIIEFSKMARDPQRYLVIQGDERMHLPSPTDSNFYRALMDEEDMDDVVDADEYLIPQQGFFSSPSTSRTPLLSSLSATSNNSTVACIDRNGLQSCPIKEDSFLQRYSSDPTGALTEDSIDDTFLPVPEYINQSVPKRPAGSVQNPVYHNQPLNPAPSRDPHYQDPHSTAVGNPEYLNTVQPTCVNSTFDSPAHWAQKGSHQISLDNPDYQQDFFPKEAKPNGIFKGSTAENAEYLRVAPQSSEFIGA
T1 sequence (P04626 whole entry): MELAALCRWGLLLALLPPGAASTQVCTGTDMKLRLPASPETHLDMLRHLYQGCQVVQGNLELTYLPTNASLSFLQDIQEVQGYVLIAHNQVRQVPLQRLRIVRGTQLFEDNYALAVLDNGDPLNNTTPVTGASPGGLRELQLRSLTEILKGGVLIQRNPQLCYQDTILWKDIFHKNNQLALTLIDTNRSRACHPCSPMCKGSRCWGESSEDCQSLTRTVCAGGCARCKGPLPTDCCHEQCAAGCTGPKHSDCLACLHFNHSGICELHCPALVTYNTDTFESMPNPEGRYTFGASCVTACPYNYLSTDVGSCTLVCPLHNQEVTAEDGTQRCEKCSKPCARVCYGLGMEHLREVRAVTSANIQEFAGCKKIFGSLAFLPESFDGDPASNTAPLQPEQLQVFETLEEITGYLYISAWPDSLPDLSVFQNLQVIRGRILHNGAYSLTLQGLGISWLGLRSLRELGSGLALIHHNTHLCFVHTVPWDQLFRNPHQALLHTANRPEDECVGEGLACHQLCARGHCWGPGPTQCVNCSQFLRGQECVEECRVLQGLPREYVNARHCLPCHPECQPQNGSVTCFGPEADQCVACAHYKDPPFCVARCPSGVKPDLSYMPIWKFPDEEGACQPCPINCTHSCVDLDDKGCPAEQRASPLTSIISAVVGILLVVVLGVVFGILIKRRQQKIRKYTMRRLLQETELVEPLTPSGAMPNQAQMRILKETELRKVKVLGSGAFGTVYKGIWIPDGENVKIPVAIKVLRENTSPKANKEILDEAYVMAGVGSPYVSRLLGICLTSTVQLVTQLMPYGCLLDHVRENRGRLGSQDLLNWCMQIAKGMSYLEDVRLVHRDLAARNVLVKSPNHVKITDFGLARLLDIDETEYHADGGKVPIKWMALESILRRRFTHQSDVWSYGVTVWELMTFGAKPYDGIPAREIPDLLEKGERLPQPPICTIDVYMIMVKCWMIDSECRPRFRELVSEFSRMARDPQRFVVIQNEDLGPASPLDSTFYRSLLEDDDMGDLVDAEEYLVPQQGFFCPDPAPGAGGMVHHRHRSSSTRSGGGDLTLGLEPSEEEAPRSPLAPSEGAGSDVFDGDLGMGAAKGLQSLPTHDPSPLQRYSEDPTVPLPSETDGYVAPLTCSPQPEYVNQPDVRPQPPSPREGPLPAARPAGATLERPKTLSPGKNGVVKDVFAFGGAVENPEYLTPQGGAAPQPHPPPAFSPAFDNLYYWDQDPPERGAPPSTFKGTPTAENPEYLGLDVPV

`O=C(O[C@@H]1CN[C@H](C#Cc2cc3ncnc(Nc4ccc(OCc5cccc(F)c5)c(Cl)c4)c3s2)C1)N1CCOCC1` gave an EC50 (BT-474) of 140 nM.

In the case of `O=C(O[C@@H]1CN[C@@H](C#Cc2cc3ncnc(Nc4ccc(OCc5cccc(F)c5)c(Cl)c4)c3s2)C1)N1CCOCC1`, the EC50 (BT-474) is reported as 50 nM.

`O=C(O[C@H]1CN[C@@H](C#Cc2cc3ncnc(Nc4ccc(OCc5cccc(F)c5)c(Cl)c4)c3s2)C1)N1CCOCC1` was tested, and the EC50 (BT-474) was 120 nM.

For `O=C(O[C@H]1CN[C@H](C#Cc2cc3ncnc(Nc4ccc(OCc5cccc(F)c5)c(Cl)c4)c3s2)C1)N1CCCC1`, the IC50 [1] was 32 nM, the EC50 (HN5) was 120 nM and the IC50 [2] was 99 nM. The EC50 (HFF) was 3500 nM and the EC50 (BT-474) was 60 nM.

`NC(=O)O[C@H]1CN[C@H](C#Cc2cc3ncnc(Nc4ccc(OCc5cccc(F)c5)c(Cl)c4)c3s2)C1` showed an IC50 [3] of 40 nM, an IC50 [4] of 16 nM and an EC50 (HN5) of 100 nM. It also gave an EC50 (HFF) of 5500 nM and an EC50 (BT-474) of 25 nM.

In the case of `CCNC(=O)O[C@@H]1CN[C@@H](C#Cc2cc3ncnc(Nc4ccc(OCc5cccc(F)c5)c(Cl)c4)c3s2)C1`, the IC50 [3] is reported as 50 nM and the EC50 (BT-474) is reported as 60 nM.

In the case of `CCNC(=O)O[C@H]1CN[C@@H](C#Cc2cc3ncnc(Nc4ccc(OCc5cccc(F)c5)c(Cl)c4)c3s2)C1`, the IC50 [3] is reported as 32 nM and the EC50 (BT-474) is reported as 20 nM.

`CN(C)C(=O)O[C@H]1CN[C@@H](C#Cc2cc3ncnc(Nc4ccc(OCc5cccc(F)c5)c(Cl)c4)c3s2)C1` was tested, and the EC50 (BT-474) was 10 nM.

In the case of `CNC(=O)O[C@H]1CN[C@H](C#Cc2cc3ncnc(Nc4ccc(OCc5cccc(F)c5)c(Cl)c4)c3s2)C1`, the EC50 (HN5) is reported as 60 nM, the EC50 (HFF) is reported as 5000 nM and the EC50 (BT-474) is reported as 30 nM.

`CCNC(=O)O[C@@H]1CN[C@H](C#Cc2cc3ncnc(Nc4ccc(OCc5cccc(F)c5)c(Cl)c4)c3s2)C1` gave an EC50 (BT-474) of 130 nM.

`CN(C)C(=O)O[C@@H]1CN[C@H](C#Cc2cc3ncnc(Nc4ccc(OCc5cccc(F)c5)c(Cl)c4)c3s2)C1` gave an EC50 (BT-474) of 230 nM.

Molecule `O=C(O[C@H]1CN[C@H](C#Cc2cc3ncnc(Nc4ccc(OCc5cccc(F)c5)c(Cl)c4)c3s2)C1)N1CCNCC1` has an IC50 [3] of 63 nM, an IC50 [4] of 20 nM and an EC50 (HN5) of 400 nM. The EC50 (HFF) was 5100 nM and the EC50 (BT-474) was 100 nM.

Molecule `CS(=O)(=O)CCNC(=O)O[C@H]1CN[C@H](C#Cc2cc3ncnc(Nc4ccc(OCc5cccc(F)c5)c(Cl)c4)c3s2)C1` has an IC50 [3] of 40 nM, an IC50 [4] of 32 nM and an EC50 (HN5) of 30 nM. It also gave an EC50 (HFF) of 8200 nM and an EC50 (BT-474) of 290 nM.

`CCN(CC)C(=O)O[C@H]1CN[C@H](C#Cc2cc3ncnc(Nc4ccc(OCc5cccc(F)c5)c(Cl)c4)c3s2)C1` gave an IC50 [1] of 50 nM, an EC50 (HN5) of 250 nM and an IC50 [2] of 63 nM. For the same molecule, the EC50 (HFF) was 4300 nM and the EC50 (BT-474) was 80 nM.

Molecule `CCN(C)C(=O)O[C@H]1CN[C@H](C#Cc2cc3ncnc(Nc4ccc(OCc5cccc(F)c5)c(Cl)c4)c3s2)C1` has an IC50 [3] of 50 nM, an IC50 [4] of 32 nM and an EC50 (HN5) of 240 nM. It also gave an EC50 (HFF) of 3000 nM and an EC50 (BT-474) of 90 nM.

With `C=CC(=O)Nc1cc2c(Nc3ccc(F)c(Cl)c3)ncnc2cc1OCCCN1CCOCC1` [CANERTINIB] the EC50 (HN5) was 50 nM and the EC50 (BT-474) was 10 nM.

Work on `CN(C)C(=O)O[C@H]1CN[C@H](C#Cc2cc3ncnc(Nc4ccc(OCc5cccc(F)c5)c(Cl)c4)c3s2)C1` [GSK-182497A] yielded an EC50 (HFF) of 2800 nM and an EC50 (BT-474) of 30 nM.

`CCNC(=O)O[C@H]1CN[C@H](C#Cc2cc3ncnc(Nc4ccc(OCc5cccc(F)c5)c(Cl)c4)c3s2)C1` [GSK-192082A] was tested, and the EC50 (HN5) was 95 nM, the EC50 (HFF) was 4200 nM and the EC50 (BT-474) was 30 nM.

With `CN(C)C(=O)O[C@@H]1CN[C@@H](C#Cc2cc3ncnc(Nc4ccc(OCc5cccc(F)c5)c(Cl)c4)c3s2)C1` [GSK-238063A] the EC50 (BT-474) was 30 nM.

In the case of `O=C(O[C@H]1CN[C@H](C#Cc2cc3ncnc(Nc4ccc(OCc5cccc(F)c5)c(Cl)c4)c3s2)C1)N1CCOCC1` [GW869810X], the EC50 (HFF) is reported as 4900 nM and the EC50 (BT-474) is reported as 30 nM.

`CS(=O)(=O)CCNCc1ccc(-c2ccc3ncnc(Nc4ccc(OCc5cccc(F)c5)c(Cl)c4)c3c2)o1` [LAPATINIB DITOSYLATE] showed an EC50 (BT-474) of 20 nM.
